One experiment deals with L8 myocytes. In words: [3H]-2-deoxy-D-glucose (dGlc) uptake assay in L8 myocytes. Format: cell-based. The protocol:
The time-course of D-xylose effect in two types of skeletal muscle cells (L8 myocytes and C2 myotubes) was studied. L8 myocytes and C2 myotubes preconditioned in 20 mM glucose were incubated with 20 mM xylose. After 90 min the cells were washed and incubated with 20 mM glucose, and subjected to a deoxyglucose dGlc uptake assay (14).
It has shown before by the inventors of the present invention that deoxyglucose (dGlc) depresses the hexose transport system in myocytes and that a subsequent incubation with low (even no) glucose fails to reverse this effect of dGlc [Sasson, S et al (1997)]. The inventors have therefore measured the effect of D-xylose on rate of hexose transport following treatment with dGlc. In one experiment, C2 myotubes preconditioned with 2 mM glucose received fresh medium containing 2 mM dGlc. A portion of the cells were washed after 30 min and received 20 MM D-xylose or 2 mM D-glucose, and subjected to a dGlc uptake assay at different time points. In another experiment, L8 myocytes preconditioned with 2 mM glucose were washed and incubated with 2 mM xylose or 2 mM dGlc. A portion of the cells were washed again after 2 hr and incubated with 20 mM xylose, and subjected to a dGlc uptake assay at different time points.
This conclusion is also supported by the finding of the a better ability of D-xylose than the other pentoses to reverse 2-deoxy-D-glucose-induced downregulation of the hexose transport system in L8 myocytes. L8 myocytes were preconditioned with 2 mM glucose, washed and incubated with 2 mM dGlc. After 30 min a portion of the cells were washed again and incubated with 20 mM xylose, ribose, arabinose or lyxose. Cells were subjected to the dGlc uptake assay at various time points.
(§1) Uptake assay of the tritiated glucose analogue, 2-deoxy-D-glucose, is routinely performed as described in [Sasson, S. and Cerasi, E. (1986) J. Biol. Chem. 261, 16827-16833].

Experiment [1] relates to glucose uptake in cultured cells. In words: In vitro glucose uptake / hexose transport in cultured cells with xylose derivatives (Table 2). Format: cell-based. The protocol: Table 2 summarizes in vitro results obtained with some of these newly synthesized xylose derivatives.
as §1
All new compounds are screened and tested first in various insulin-sensitive cell cultures used routinely in the laboratory (skeletal muscle and adipose cell lines). In addition these drugs were tested in non-insulin-sensitive cells such as primary cultures of bovine and porcine vascular endothelial and smooth muscle cells. Active compounds were tested ex-vivo on isolated rat soleus muscles. All cell cultures and tissues were maintained under hyperglycemic condition prior to the addition of the test compounds. Dose-response and time-course experiments determine which of the derivatives are subsequently tested in animal models. For each potent compound the total cell content and plasma membrane abundance of GLUT-1 and GLUT-4 was determined, as described above. The same biotinylation technique was employed to determine the total and plasma membrane content of both transporters in isolated mouse or rat soleus muscles treated with potent compounds.

The next experiment has as its system PKB. In words: PKB phosphorylation immunoblot in L6 myotubes. It is filed as cell-based, rat. The following applies: 23.0 mM glucose; 100 nM insulin, 20 mM xylose, 5 mM EH-114 or 250 μM EH-40, up to 24 hrs (FIG. 11B). As for the experimental part:
FIG. 11B: Effects of insulin D-xylose and xylose derivatives on PKB phosphorylation. L6 myotubes were maintained at 5.5 mM or 23.0 mM glucose. The latter were treated with 100 nM insulin, 20 mM xylose, 5 mM EH-114 or 250 μM EH-40 up to 24 hrs. At the indicated times treated myotubes were collected, homogenized and lysed and the soluble protein fraction was isolated. The control myotubes were collected at the end of the 24 hr incubation period. Equal amounts of proteins of the various treated myotubes were separated on SDS-PAGE and immunoblotted with a specific antibody against phospho-Axt1/PKBα (Ser473). In order to test whether xylose derivative activate insulin transduction elements downstream of PI3K, the inventors tested the state of PKB phosphorylation, as shown in FIG. 11B.

Experiment [2] concerns isolated rat soleus muscles. In words: dGlc uptake in isolated soleus muscles. It is filed as cell-based. The following applies: 3 hr, 20 mM glucose with 20 mM xylose (FIG. 9). As for the experimental part:
FIG. 9: Effect of D-xylose on dGlc uptake in soleus muscles. Soleus muscles were isolated from Sabra male albino rats and incubated for 3 hr with 20 mM glucose in the absence or the presence of 20 mM xylose. The muscles were washed and subjected to dGlc uptake assay without or with insulin (500 nM). Mean±SEM (n=3).
Some experiments with isolated rat soleus muscles were performed, in order to exclude cell-line specific effects, and to assess the physiologic relevance of the findings of the present invention. Soleus muscles were isolated from Sabra male albino rats and incubated for 3 hr with 20 mM glucose in the absence or the presence of 20 mM xylose. The muscles were washed and subjected to dGlc uptake assay without or with insulin (500 nM).
The procedure follows that described before in [Sasson et al (1987), Diabetes 36, 1041-46].

In a further experiment the test system is 3T3-L1 adipocytes. In words: Screening of methylated xylose derivatives, dGlc uptake assay (Table 1). The conditions noted are these: Mean±SEM (n=3-6). It is filed as cell-based.
Text: There are five carbon atoms in xylose available for chemical modifications. Each of these atoms was methylated by modifications of published chemical procedures [Bollenback, G. N. (1963) In Methods in carbohydrate chemistry, vol. 2 (Whistler, R. L. and Wolfrom, M. L., eds.), pp. 326-331, Academic Press, New York; Bowering, W. and Timel, T. (1958) Can. J. Chem. 36, 283-285; Levine, P. and Raymomd, A. (1933) J. Biol. Chem. 102, 331-344; Takeo, K. (1992) Carbohyd. Res. 224, 311-318]. All compounds were purified by HPLC and their structure verified by NMR spectroscopy. […] At the end of the incubation period the cells were taken for a standard [^3H]-2-deoxy-D-glucose uptake assay in the absence or the presence of 500 nM insulin (30 min exposure prior to the uptake assay).
3T3-L1 adipocytes and L6 myotubes were maintained for 24 hr at 20 mM glucose. Test compounds were added (0.1-20.0 mM) and the cells were incubated further for 2-45 hr. At the end of the incubation periods the cells were washed and taken for a standard [^3H]2-deoxy-D-glucose (dGlc) uptake assay. Uptake values (given for control cells) are in nmol dGlc/mg protein/min. Mean±SEM (n=3-6).
as §1

As to `O=C[C@H](O)[C@@H](O)[C@H](O)CO` [D-xylose], the “reversal of 2-deoxy-D-glucose-induced downregulation of the hexose transport system” value in the experiment on L8 myocytes (20 mM pentose after 30 min 2 mM dGlc (FIG. 8)) is given as “better than any of the other pentoses”. Moreover, in the experiment on L8 myocytes (20 mM xylose after 2 hr 2 mM dGlc (FIG. 4B)), the “rate of hexose transport downregulated by dGlc” value was “increased the rate of hexose transport”. For the same compound, the “rate of glucose transport” value with L8 myocytes (20 mM xylose, cells preconditioned in 20 mM glucose (FIG. 1)) is “increases the rate of glucose transport”. The “Fold Increase of Glucose Uptake” value in experiment [1] is reported as about 2.0 fold. In experiment [1] (EC = Effective concentration), this compound had an EC50 of 12 mM and an ECmax of 20 mM. Further, the “time to loss of activity after being removed” value in experiment [1] (after being washed from cell cultures) is 10 to 20 min. Besides, the PKB phosphorylation entry with PKB is “failed to induce significant phosphorylation”. The “increase of the rate of dGlc uptake” value in experiment [2] is on record as 42%. In addition, in the experiment on 3T3-L1 adipocytes (3T3-L1 adipocytes 24 hr at 20 mM glucose, test compounds 0.1-20.0 mM, 2-45 hr), the “HEXOSE UPTAKE (Percent of Control) Without Insulin” value is on record as 189 ± 4% of Control. Further, in the experiment with 3T3-L1 adipocytes (as E1, 500 nM insulin 30 min prior to uptake assay), the “HEXOSE UPTAKE (Percent of Control) With Insulin” value was 158 ± 9% of Control.

In general, EC50 refers to the concentration at which the effect is half-maximal. A higher EC50 goes with a less potent agent.

The values above are taken from patent US7812142B2, “Pentose derivatives as anti-hyperglycemic drugs” (Yissum Research Development Company of the Hebrew …, priority 2002, dated 2010).
